Drawing on patent US6720339B2, “Certain fused pyrrolecarboxamides; a new class of GABA brain receptor ligands” (Neurogen Corporation, priority 1996, dated 2004), this text covers melting point and Ki for 29 molecules.

One may read the melting point as the temperature, or range, at which the solid turns liquid. In general, Ki refers to a measure of affinity in units of concentration, obtained from inhibition or displacement. Low readings indicate higher affinity, high ones lower affinity.

Data set [1] addresses GABAa receptor (benzodiazepine receptor). As to the kind of experiment: GABAa receptor binding assay (3H-RO15-1788 [3H-Flumazenil] displacement, rat cortical tissue homogenate). Conditions: radioligand 0.5 nM 3H-RO15-1788 (3H-Flumazenil), 30 min at 4° C. The procedure:
The pharmaceutical utility of compounds of this invention are indicated by the following assay for GABAa receptor binding activity.
Assays are carried out as described in Thomas and Tallman (J. Bio. Chem. 156: 9838-9842, J. Neurosci. 3: 433-440, 1983). Rat cortical tissue is dissected and homogenized in 25 volumes (w/v) of 0.05 M Tris HCl buffer (pH 7.4 at 4° C.). The tissue homogenate is centrifuged in cold (4° C.) at 20,000×g for 20′. The supernatant is decanted and the pellet is rehomogenized in the same volume of buffer and again centrifuged at 20,000×g. The supernantant is decanted and the pellet is frozen at −20° C. overnight. The pellet is then thawed and rehomogenized in 25 volume (orginal wt/vol) of buffer and the procedure is carried out twice. The pellet is finally resuspended in 50 volumes (w/vol of 0.05 M Tris HCl buffer (pH 7.4 at […]).
Incubations contain […] of tissue homogenate, […] of radioligand 0.5 nM (^3H-RO15-1788 [^3H-Flumazenil] specific activity 80 Ci/mmol), drug or blocker and buffer to a total volume of […]. Incubations are carried for 30 min at 4° C. then are rapidly filtered through GFB filters to separate free and bound ligand. Filters are washed twice with fresh 0.05 M Tris HCl buffer (pH 7.4 at 4° C.) and counted in a liquid scintillation counter. 1.0 mM diazepam is added to some tubes to determine nonspecific binding. Data are collected in triplicate determinations, averaged and % inhabition of total specific binding is calculated. Total Specific Binding=Total−Nonspecific. In some cases, the amounts of unlabeled drugs is varied and total displacement curves of binding are carried out.

As to `CC1CC(=O)c2c(C(=O)Nc3ccc(O)c(O)c3)c[nH]c2C1` (stereo not shown) [Example 3(cc), N-(3,4-Dihydroxyphenyl)-4-oxo-6-methyl-4,5,6,7-tetrahydro-1H-indole-3-carboxamide], the melting point lay in the range of 267 to 269 °C.
`COc1ccc(NC(=O)c2c[nH]c3c2C(=O)CC(C)(C)C3)c(F)c1` [Example 3(i), N-(2-Fluoro-4-methoxyphenyl)-4-oxo-6,6-dimethyl-4,5,6,7-tetrahydro-1H-indole-3-carboxamide]: the melting point lay in the range of 213 to 215 °C.
On to `CC1CC(=O)c2c(C(=O)Nc3ccncc3)c[nH]c2C1` (stereo not shown) [Example 3(mm), N-(4-Pyridyl)-4-oxo-6-methyl-4,5,6,7-tetrahydro-1H-indole-3-carboxamide], for which the melting point lay in the range of 280 to 290 °C.
The same measure, in the same setting: the figure for `COc1ccc(NC(=O)c2c[nH]c3c2C(=O)CC(C)(C)C3)cc1O` [Example 3(h), N-(3-Hydroxy-4-methoxyphenyl)-4-oxo-6,6-dimethyl-4,5,6,7-tetrahydro-1H-indole-3-carboxamide] is 282 to 284 °C; for `CC1CC(=O)c2c(C(=O)Nc3cccc(F)c3)c[nH]c2C1` (stereo not shown) [Example 3(s), N-(3-Fluorophenyl)-4-oxo-6-methyl-4,5,6,7-tetrahydro-1H-indole-3-carboxamide] it is 302 to 303 °C; for `COc1ccc(NC(=O)c2c[nH]c3c2C(=O)CC(C)C3)c(O)c1` (stereo not shown) [Example 3(x), N-(2-Hydroxy-4-methoxyphenyl)-4-oxo-6methyl-4,5,6,7-tetrahydro-1H-indole-3-carboxamide] it is 236 to 238 °C.
With `COc1ccc(NC(=O)c2c[nH]c3c2C(=O)CC(C)C3)c(F)c1` (stereo not shown) [Compound 6, N-(2-Fluoro-4-methoxyphenyl)-4-oxo-6-methyl-4,5,6,7-tetrahydro-1H-indole-3-carboxamide], the melting point lay in the range of 217 to 219 °C. The molecule further displayed a Ki in data set [1] of 1 nM.
Consider `CC1(C)CC(=O)c2c(C(=O)Nc3ccc(O)cc3F)c[nH]c2C1` [Example 3(l), N-(2-Fluoro-4-hydroxyphenyl)-4-oxo-6,6-dimethyl-4,5,6,7-tetrahydro-1H-indole-3-carboxamide], for which the melting point lay in the range of 225 to 227 °C.
The molecule `COc1ccc(NC(=O)c2c[nH]c3c2C(=O)CC(C)C3)cc1` (stereo not shown) [Example 3(y), N-(4-Methoxyphenyl)-4-oxo-6-methyl-4,5,6,7-tetrahydro-1H-indole-3-carboxamide] had a melting point of 260 to 261 °C.
Take `COc1ccc(NC(=O)c2c[nH]c3c2C(=O)CC(C)(C)C3)cc1` [Compound 3, N-(4-Methoxyphenyl)-4-oxo-6,6-dimethyl-4,5,6,7-tetrahydro-1H-indole-3-carboxamide]: in data set [1], the Ki is 13 nM.
In data set [1], `CC1(C)CC(=O)c2c(C(=O)Nc3ccccc3)c[nH]c2C1` [Compound 1, N-Phenyl-4-oxo-6,6-dimethyl-4,5,6,7-tetrahydro-1H-indole-3-carboxamide] had a Ki of 21 nM.
Same read-out and setting: to `CC1(C)CC(=O)c2c(C(=O)Nc3ccsc3)c[nH]c2C1` [Compound 7, N-(3-Thienyl)-4-oxo-6,6-dimethyl-4,5,6,7-tetrahydro-1H-indole-3-caboxamide] belongs 10 nM.
For `CC1(C)CC(=O)c2c(C(=O)Nc3cccnc3)c[nH]c2C1` [Example 3(hh), N-(3-Pyridyl)-4-oxo-6,6-dimethyl-4,5,6,7-tetrahydro-1H-indole-3-carboxamide], the melting point was in the range of 237 to 239 °C.
The molecule `CC1CC(=O)c2c(C(=O)Nc3ccc(O)cc3)c[nH]c2C1` (stereo not shown) [Example 3(v), N-(4-Hydroxyphenyl)-4oxo-6-methyl-4,5,6,7-tetrahydro-1H-indole-3-carboxamide] showed a melting point of 320 °C.
The molecule `CC1CC(=O)c2c(C(=O)Nc3ccccc3F)c[nH]c2C1` (stereo not shown) [Compound 5, N-(2-Fluorophenyl)-4-oxo-6-methyl-4,5,6,7-tetrahydro-1H-indole-3-carboxamide] came in with a melting point of 264 to 265 °C. The Ki in data set [1] was 0.5 nM.
`CC1CC(=O)c2c(C(=O)Nc3ccc4ccccc4n3)c[nH]c2C1` (stereo not shown) [Compound 10, N-(2-Quinolinyl)-4-oxo-6-methyl-4,5,6,7-tetrahydro-1H-indole-3-carboxamide]: the melting point fell in the range of 273 to 275 °C. In addition, the affinity in data set [1], expressed as Ki, was 12 nM.
For the molecule `CC1CC(=O)c2c(C(=O)Nc3ccc(F)cc3)c[nH]c2C1` (stereo not shown) [Example 3(t), N-(4-Fluorophenyl)-4-oxo-6-methyl-4,5,6,7-tetrahydro-1H-indole-3-carboxamide], the melting point is 262 to 264 °C.
In data set [1], `CC1CC(=O)c2c(C(=O)Nc3ccc4cccnc4n3)c[nH]c2C1` (stereo not shown) [Compound 9, N-(1,8-Napthyridin-2-yl)-4-oxo-6-methyl-4,5,6,7-tetahydro-1H-indole-3-carboxamide] returned a Ki of 4 nM.
For `COc1ccc(NC(=O)c2c[nH]c3c2C(=O)CC(C)(C)C3)c(O)c1` [Example 3(g), N-(2-Hydroxy-4-methoxyphenyl)-4-oxo-6,6-dimethyl-4,5,6,7-tetrahydro-1H-indole-3-carboxamide], the melting point lay in the range of 190 to 192 °C.
For the molecule `CC1CC(=O)c2c(C(=O)Nc3cccnc3)c[nH]c2C1` (stereo not shown) [Example 3(ll), N-(3-Pyridyl)-4-oxo-6-methyl-4,5,6,7-tetrahydro-1H-indole-3-carboxamide], the melting point fell in the range of 225 to 227 °C.
Same read-out and setting: the figure for `Cc1ccc(NC(=O)c2c[nH]c3c2C(=O)CC(C)C3)c(O)c1` (stereo not shown) [Example 3(dd), N-(2-Hydroxy-4-methylphenyl)-4-oxo-6-methyl-4,5,6,7-tetrahydro-1H-indole-3-carboxamide] is 258 to 260 °C; for `COc1ccncc1NC(=O)c1c[nH]c2c1C(=O)CC(C)(C)C2` [Example 3(ii), N-(4-Methoxy-3-pyridyl)-4-oxo-6,6-dimethyl-4,5,6,7-tetrahydro-1H-indole-3-carboxamide] it is 217 to 218 °C.
Consider `CC1(C)CC(=O)c2c(C(=O)Nc3cccc(F)c3)c[nH]c2C1` [Example 3(b), N-(3-Fluorophenyl)-4-oxo-6,6-dimethyl-4,5,6,7-tetrahydro-1H-indole-3-carboxamide], for which the melting point lay within 259 to 261 °C.
Molecule `CC1CC(=O)c2c(C(=O)Nc3ccccc3)c[nH]c2C1` (stereo not shown) [Compound 4, N-Phenyl-4-oxo-6-methyl-4,5,6,7-tetraydro-1H-indole-3-carboxamide] gave a melting point of 278 to 279 °C. In data set [1], this molecule displayed a Ki of 1 nM.
`CC1(C)CC(=O)c2c(C(=O)Nc3ccc(F)cc3)c[nH]c2C1` [Example 3(c), N-(4-Fluorophenyl)-4-oxo-6,6-dimethyl-4,5,6,7-tetrahydro-1H-indole-3-carboxamide] showed a melting point of 268 to 270 °C.
The molecule `CC1(C)CC(=O)c2c(C(=O)Nc3ccc4cccnc4n3)c[nH]c2C1` [Compound 8, N-(1,8-Napthyridin-2yl)-4-oxo-6,6-dimethyl-4,5,6,7-tetrahydro-1H-indole-3-carboxamide] returned a melting point of 389 to 390 °C. The affinity in data set [1] corresponds to a Ki of 80 nM.
With `CCOc1ccc(NC(=O)c2c[nH]c3c2C(=O)CC(C)C3)c(F)c1` (stereo not shown) [Example 3(bb), N-(2-Fluoro-4-ethoxyphenyl)-4-oxo-6-methyl-4,5,6,7-tetrahydro-1H-indole-3-carboxamide], the melting point was in the range of 224 to 225 °C.
With `COc1cccc(NC(=O)c2c[nH]c3c2C(=O)CC(C)C3)c1` (stereo not shown) [Example 3(u), N-(3-Methoxyphenyl)-4-oxo-6-methyl-4,5,6,7-tetrahydro-1H-indole-3-carboxamide], the melting point is 234 to 235 °C.
In turn, `CC1(C)CC(=O)c2c(C(=O)Nc3ccccc3F)c[nH]c2C1` [Compound 2] registered an inhibition constant (Ki) in data set [1] of 12 nM.
